# Experimental data from patent US5629469A, “Thiol protease inhibitor” (Sandoz Ltd., priority 1995, dated 1997).
# Assays:
# [1] = system: proteolytic activity in the midgut extracts; details: three species of beetles; cited from earlier work
# wCRW larvae = assay: Artificial diet bioassay, neonate wCRW larvae; type: in vivo; details: Diabrotica virgifera, 144 h; diet supplemented with 0.01%; mortality at day 6; read-out: % wCRW mortality ± SE
# Procedure: Neonate wCRW larvae are allowed to feed on BioServe, a standard artificial diet used for southern corn rootworm. The diet is supplemented with the treatments indicated below in Table 3. Two or 3 larvae are placed in treatment wells with 9 replicate wells used per treatment. The larvae are allowed to feed on the diet and mortality is evaluated at day 6.
compound,measurement,setting,value
"CC(C)C[C@H](NC(=O)[C@H]1O[C@@H]1C(=O)O)C(=O)NCCCCN=C(N)N [E64, [N-(L-3 transcarrboxyoxiran-2-carbonyl)-L-leucyl]-amido(4-guanido)-butane]",inhibition of proteolytic activity in midgut extracts,[1],much or most of the proteolytic activity in the midgut extracts was inhibited
same,mortality at 0.01 %,wCRW larvae,80 ± 8%
